According to patent US20250109135A1, “NOVEL ISOINDOLINONE DERIVATIVE COMPOUNDS AS CASPASE INHIBITORS” (INNOVO THERAPEUTICS INC., priority 2022, published 2025):
Like-named read-outs stand apart in the source and are kept apart here.

How the values were obtained:
[1] = molecular target: T1, recombinant human Caspase-1 (Homo sapiens, UniProt P29466); test: Caspase-1 inhibitory activity, fluorescent substrate Ac-YVAD-AFC; format: biochemical
T1 construct: purchased Enzo life science
T1 sequence (P29466 120-297 limits assumed): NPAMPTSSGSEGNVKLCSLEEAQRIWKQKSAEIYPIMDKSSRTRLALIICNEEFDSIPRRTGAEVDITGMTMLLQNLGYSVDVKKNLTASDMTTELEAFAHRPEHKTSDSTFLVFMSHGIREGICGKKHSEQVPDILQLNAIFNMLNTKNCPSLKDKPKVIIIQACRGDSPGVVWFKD
T1 sequence (P29466 317-404 limits assumed): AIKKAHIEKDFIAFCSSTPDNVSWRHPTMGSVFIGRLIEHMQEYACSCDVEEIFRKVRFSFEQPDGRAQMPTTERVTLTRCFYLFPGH
Method: To determine the Caspase-1 inhibitory activity of the compounds of the present invention prepared in Example, Caspase-1 activity was measured using a substrate with a fluorescent dye attached to it. […] The compound was dissolved in DMSO and stored at −20° C. Enzymatic reactions were carried out in a buffer comprising 50 mM HEPES (pH 8.0), 50 mM KCl, 200 mM NaCl, 10 mM DTT, 0.1% CHAPS (w/v). Enzyme inactivation was measured in the presence of different concentrations of the compound using the fluorescent substrate N-Acetyl-Tyr-Val-Ala-Asp-7-amido-4-trifluoromethylcoumarin (Ac-YVAD-AFC) (Sigma) at a concentration of 50 μM and 1 unit of recombinant human Caspase-1 (Enzo life science). A CLARIOstar Plus spectrometer (BMG Labtech) was used to measure the reaction rate as a function of time in the 400/505 nm (Ex/Em) wavelength band. […] If kobs/[I] is 20 or more, it is denoted as A, if it is 10 or more but less than 20, it is denoted as B, if it is 1 or more but less than 10, it is denoted as C, and if it is less than 1, it is denoted as D.
In the above equation, At means the enzyme reaction rate at time t (min), and Amax means the maximum reaction rate.

Jurkat cells = test: Apoptosis inhibition activity in human T-lymphocyte cells Jurkat (anti-FAS antibody, intracellular ATP); format: cell-based; settings: compound 50 nM, 1 μg/ml anti-FAS antibody 24 h, ATP luminescence
Method: To evaluate the effect of the compound of the present invention on apoptosis, Jurkat (ATCC) cells were treated with anti-FAS antibody CH-11 (Merck) to induce apoptosis via the Fas (CD95) receptor, which was assessed by the amount of intracellular ATP.
Jurkat cells were cultured in RPMI 1640 growth medium comprising 10% FBS and antibiotics (100 U/ml Penicillin, 0.1 mg/ml Streptomycin) under 37° C., 5% CO2 conditions. Cultured cells were seeded in growth medium to a concentration of 8×10^4 cells/well in 96-well plates (SPL), pretreated with compound at a concentration of 50 nM for 1 hour, and then treated with 1 μg/ml anti-FAS antibody for 24 hours in an incubator. After 24 h, an ATP lite Luminescence assay kit (PerkinElmer) was used to measure ATP and luminescence was measured at 580 nm using a CLARIOstar Plus spectrometer. If the inhibitory activity is 30% or more, it is denoted as a′, if it is 20% or more but less than 30%, it is denoted as b′, if it is 10% or more but less than 20%, it is denoted as c′, and if it is less than 10%, it is denoted as d′.

[2] = test system: Secreted IL-1β in THP-1 cells; test: Interleukin-1β inhibitory activity in human monocytic cells THP-1 (ELISA); format: cell-based; settings: compound 100 nM, PMA-differentiated THP-1, LPS 10 μg/ml then 5 mM ATP, 24 h
Method: Caspase-1 is known as […] (ICE). Activated Caspase-1 is involved in the cleavage of pro-form IL-1β to produce the mature form, which is then secreted to induce inflammation. Therefore, the compounds identified in Experimental example 1 were tested to determine if their Caspase-1 inhibitory activity affected the production of […].
THP-1 (ATCC) cells were cultured in RPMI 1640 (Hyclone) growth medium comprising 10% Fetal bovine serum (FBS, Gibco) and antibiotics (100 U/ml Penicillin, 0.1 mg/ml Streptomycin, Cytiva) under 37° C., 5% CO2 conditions. Cultured THP-1 cells were seeded in growth medium to a concentration of 3×10^5 cells/well in 24-well plates (Celvest) and then treated with 1 μM Phorbol 12-myristate 13-acetate (PMA) (Sigma) for 24 hours to induce differentiation. Differentiated THP-1 were pre treated with 10 μg/ml Lipopolysaccharide (LPS, from E. coli 0111:B4 (InvivoGen)) in serum free RPMI 1640 medium for 24 hours to induce an inflammatory response. After removal of LPS, the compounds were pretreated for 1 h at a concentration of 100 nM using the same medium, followed by the addition of 5 mM ATP (InvivoGen) and incubation for 24 h in an incubator. The treated medium was collected and centrifuged, and IL-1β was quantified using an Enzyme linked immunoassay kit (ELISA kit, R&D system), and absorbance was measured at 450 nm using a CLARIOstar Plus spectrometer. Inhibitory activity was denoted as a if it was 50% or more, b if it was 30% or more but less than 50%, c if it was 10% or more but less than 30%, and d if it was less than 10%.

[3] = pH 8, read-out: kobs/[I] Caspase-1
[4] = pH 8, 1 unit recombinant human Caspase-1, 50 μM Ac-YVAD-AFC, read-out: kobs/[I] Caspase-1

SMILES | kinact/KI [1, 3] [M⁻¹ s⁻¹] | inhibition at 0.05 µM (Jurkat cells) [%] | inhibition at 0.1 µM [2] [%] | kinact/KI [1, 4] [M⁻¹ s⁻¹]
O=C(O)CC(NC(=O)CN1Cc2ccc(-c3csc4ccccc34)cc2C1=O)C(=O)CF (stereo not shown) [Compound 40, 3-(2-(6-(benzo[b]thiophen-3-yl)-1-oxoisoindolin-2-yl)acetamido)-5-fluoro-4-oxopentanoic acid] | 0.0167 to 0.167 | < 10 | < 10 | –
CCC(C(=O)NC(CC(=O)O)C(=O)CF)N1Cc2ccc(-c3cccnc3)cc2C1=O (stereo not shown) [Compound 4, 5-fluoro-4-oxo-3-(2-(1-oxo-6-(pyridin-3-yl)isoindolin-2-yl)butanamido)pentanoic acid] | – | 10 to 20 | 30 to 50 | 0.0167 to 0.167
O=C(O)CC(NC(=O)CN1Cc2ccc(-c3ccc4[nH]c(=O)[nH]c4c3)cc2C1=O)C(=O)CF (stereo not shown) [Compound 38, 5-fluoro-4-oxo-3-(2-(1-oxo-6-(2-oxo-2,3-dihydro-1H-benzo[d]imidazol-5-yl)isoindolin-2-yl)acetamido)pentanoic acid] | < 0.0167 | < 10 | < 10 | –
CC(C)[C@@H](C(=O)NC(CC(=O)O)C(=O)CF)N1Cc2ccc(-c3coc4ccccc34)cc2C1=O (stereo partly drawn) [Compound 44, 3-((S)-2-(6-(benzofuran-3-yl)-1-oxoisoindolin-2-yl)-3-methylbutanamido)-5-fluoro-4-oxopentanoic acid] | – | 20 to 30 | ≥ 50 | 0.167 to 0.333
CC[C@@H](C(=O)N[C@@H](CC(=O)O)C(=O)COc1c(F)c(F)cc(F)c1F)N1Cc2ccc(-c3ccc4[nH]c(=O)[nH]c4c3)cc2C1=O [Compound 52, (S)-4-oxo-3-((S)-2-(1-oxo-6-(2-oxo-2,3-dihydro-1H-benzo[d]imidazol-5-yl)isoindolin-2-yl)butanamido)-5-(2,3,5,6-tetrafluorophenoxy)pentanoic acid] | > 0.333 | 10 to 20 | 10 to 30 | –
CCC(C(=O)NC(CC(=O)O)C(=O)CF)N1Cc2ccc(-c3csc4ccccc34)cc2C1=O (stereo not shown) [Compound 16, 3-(2-(6-(benzo[b]thiophen-3-yl)-1-oxoisoindolin-2-yl)butanamido)-5-fluoro-4-oxopentanoic acid] | > 0.333 | 20 to 30 | ≥ 50 | –
CCC(C(=O)NC(CC(=O)O)C(=O)CF)N1Cc2ccc(-c3cnc4ccccc4c3)cc2C1=O (stereo not shown) [Compound 37, 5-fluoro-4-oxo-3-(2-(1-oxo-6-(quinolin-3-yl)isoindolin-2-yl)butanamido)pentanoic acid] | 0.0167 to 0.167 | < 10 | 10 to 30 | –
CCC(C(=O)NC(CC(=O)O)C(=O)CF)N1Cc2ccc(-c3ccccc3)cc2C1=O (stereo not shown) [Compound 1, 5-fluoro-4-oxo-3-(2-(1-oxo-6-phenylisoindolin-2-yl)butanamido)pentanoic acid] | – | 20 to 30 | 10 to 30 | 0.0167 to 0.167
CC[C@@H](C(=O)NC(CC(=O)O)C(=O)CF)N1Cc2ccc(-c3ccc4[nH]c(=O)[nH]c4c3)cc2C1=O (stereo partly drawn) [Compound 56, 5-fluoro-4-oxo-3-((S)-2-(1-oxo-6-(2-oxo-2,3-dihydro-1H-benzo[d]imidazol-5-yl)isoindolin-2-yl)butanamido)pentanoic acid] | – | < 10 | ≥ 50 | 0.167 to 0.333
CCC(C(=O)NC(CC(=O)O)C(=O)CF)N1Cc2ccc(-c3ccc4c(c3)OCCO4)cc2C1=O (stereo not shown) [Compound 27, 3-(2-(6-(2,3-dihydrobenzo[b][1,4]dioxin-6-yl)-1-oxoisoindolin-2-yl)butanamido)-5-fluoro-4-oxopentanoic acid] | – | ≥ 30 | 10 to 30 | 0.0167 to 0.167
CC[C@@H](C(=O)NC(CC(=O)O)C(=O)CF)N1Cc2cc(-c3coc4ccccc34)ccc2C1=O (stereo partly drawn) [Compound 57, 3-((S)-2-(5-(benzofuran-3-yl)-1-oxoisoindolin-2-yl)butanamido)-5-fluoro-4-oxopentanoic acid] | 0.0167 to 0.167 | 20 to 30 | 10 to 30 | –
CCC(C(=O)NC(CC(=O)O)C(=O)CF)N1Cc2ccc(-c3cnn(C)c3)cc2C1=O (stereo not shown) [Compound 24, 5-fluoro-3-(2-(6-(1-methyl-1H-pyrazol-4-yl)-1-oxoisoindolin-2-yl)butanamido)-4-oxopentanoic acid] | – | – | 10 to 30 | 0.0167 to 0.167
CCC(C(=O)NC(CC(=O)O)C(=O)CF)N1Cc2ccc(-c3ccc4scnc4c3)cc2C1=O (stereo not shown) [Compound 32, 3-(2-(6-(benzo[d]thiazol-5-yl)-1-oxoisoindolin-2-yl)butanamido)-5-fluoro-4-oxopentanoic acid] | – | – | < 10 | 0.0167 to 0.167
CC(C)[C@@H](C(=O)NC(CC(=O)O)C(=O)CF)N1Cc2ccc(N3CCCC3)cc2C1=O (stereo partly drawn) [Compound 43, 5-fluoro-3-((S)-3-methyl-2-(1-oxo-6-(pyrrolidin-1-yl)isoindolin-2-yl)butanamido)-4-oxopentanoic acid] | < 0.0167 | – | 10 to 30 | –
CCC(C(=O)NC(CC(=O)O)C(=O)CF)N1Cc2ccc(-c3ccc(C(F)(F)F)nc3)cc2C1=O (stereo not shown) [Compound 20, 5-fluoro-4-oxo-3-(2-(1-oxo-6-(6-(trifluoromethyl)pyridin-3-yl)isoindolin-2-yl)butanamido)pentanoic acid] | – | – | 10 to 30 | 0.0167 to 0.167
CC[C@@H](C(=O)NC(CC(=O)O)C(=O)CF)N1Cc2cc(-c3ccc4occc4c3)ccc2C1=O (stereo partly drawn) [Compound 60, 3-((S)-2-(5-(benzofuran-5-yl)-1-oxoisoindolin-2-yl)butanamido)-5-fluoro-4-oxopentanoic acid] | < 0.0167 | – | < 10 | –
CC[C@@H](C(=O)NC(CC(=O)O)C(=O)CF)N1Cc2cc(-c3cccc4ccccc34)ccc2C1=O (stereo partly drawn) [Compound 61, 5-fluoro-3-((S)-2-(5-(naphthalen-1-yl)-1-oxoisoindolin-2-yl)butanamido)-4-oxopentanoic acid] | < 0.0167 | – | < 10 | –
CCC(C(=O)NC(CC(=O)O)C(=O)CF)N1Cc2ccc(-c3cccc4ccncc34)cc2C1=O (stereo not shown) [Compound 35, 5-fluoro-3-(2-(6-(isoquinolin-8-yl)-1-oxoisoindolin-2-yl)butanamido)-4-oxopentanoic acid] | 0.0167 to 0.167 | – | < 10 | –
CCC(C(=O)NC(CC(=O)O)C(=O)CF)N1Cc2ccc(-c3ccc(S(C)(=O)=O)cc3F)cc2C1=O (stereo not shown) [Compound 12, 5-fluoro-3-(2-(6-(2-fluoro-4-(methylsulfonyl)phenyl)-1-oxoisoindolin-2-yl)butanamido)-4-oxopentanoic acid] | – | – | 10 to 30 | 0.0167 to 0.167
